Measured values taken from patent US7056734B1, “Differentiation of non-insulin producing cells into insulin producing cells by GLP-1 or exendin-4 and uses thereof” (The United States of America as represented by the …, priority 1998, dated 2006).

Tests used:
Type in all cases: cell-based, rat
islets of Langerhans = assay: cAMP determinations in isolated islets
Experimental: cAMP determinations. Islets of Langerhans were harvested from Wistar rats (Perfetti et al., 1995) and batches of 25 islets were then incubated for 1 h at 37° C. in a buffer containing (mM) 140 NaCl, 5 KCl, 1 NaPO4 1 MgSO4, 5 glucose, 2 CaCl2, 20 HEPES, buffer (pH 7.4) and 0.1% bovine serum albumin. Following this, they were incubated in the same buffer for 1 h in the presence of GLP-1 (1 nM) or exendin-4 (1 nM). Some batches of islets were then washed three times with ice-cold phosphate buffer saline (PBS) and lysed with 1 ml ice-cold […] perchloric acid. Other batches were washed three times in the buffer at 37° C. to remove peptide and left another 15 min before being washed three times in ice-cold PBS followed by lysis with the perchloric acid. The lysates (950 μl) were then transferred to microcentrifuge tubes and cAMP measured as previously described (See Example 1) using a cAMP [^3H] assay kit (Amersham).

AR42J cells [1] = assay: Intracellular cAMP in AR42J cells; conditions: 1 h; GLP-1 0.1 to 100 nM, IBMX 100 nM, CCK 0.1 to 100 nM, exendin-4 0.1 to 10 nM
Experimental: Measurement of cAMP. Cells were grown in 12-well dishes and treated with hormones and reagents±IBMX as described above. They were then washed 3 times in ice-cold PBS and lysed with 1 ml ice-cold […] perchloric acid. The lysates (950 μl) were transferred to microcentrifuge tubes and the pH adjusted to 7.0 using 5 M K2CO3. After centrifugation for 5 min at 10^4 rpm, the supernatant was vacuum dried, and then recovered in 200 μl Tris/EDTA buffer. After addition of 0.15 mM Na2CO3 (50 μl) and 0.15 mM ZnSO^4 (50 μl), followed by incubation for 15 min on ice, the salt precipitate was removed by centrifugation for 15 min at 3.5×10^3 rpm and 50 μl of supernatant was assayed using a cAMP [^3] assay kit (Amersham Corp., Arlington Heights, Ill.), (Steiner et al., 1972).

AR42J cells [2] = assay: Immunocytochemistry of insulin- and glucagon-positive AR42J cells
Experimental: Cell culture. AR42J cells were maintained in Dulbecco's modified Eagle's medium (DMEM) supplemented with 10% fetal calf serum (FBS), 100 IU/ml penicillin, 100 μg/ml streptomycin and 2 mM glutamine. Cells from passage 23–35 were used throughout this study. Cells were routinely plated at a density of about 10^5 cells/ml in 12-well cluster dishes or on coverslips and incubated in a humidified incubator at 37° C. with 95% air and 5% CO2.
Immunocytochemistry analysis. Cells were cultured on glass coverslips, washed with phosphate buffered saline (PBS) to remove serum, and fixed with 0.5% glutaraldehyde in PBS. Cells were permeabilized with 0.2% Triton X-100 for 5 min and the rest of the procedure was carried out at room temperature in a humidified chamber. Suction was used to remove reagents between each step but drying of specimens was avoided. Sufficient reagent was used to cover each specimen (approximately 1 or 2 drops was usually adequate). The coverslips were incubated in 0.3% H2O2 in PBS for 30 min to quench endogenous peroxidase activity and washed in PBS×3 times, followed by incubation with 2% goat serum in PBS for 30 min to block non-specific binding of IgG. Excess serum was removed by blotting. The specific primary polyclonal antisera (anti-insulin 1:300; anti-glucagon 1:300) were used. Antibody was diluted in PBS containing 1% goat serum. This was applied to the coverslip and incubated at room temperature for 1 h. The coverslips were washed ×3 times in PBS, each time for 5 min, then incubated with biotinylated second antibody for 1 h and washed ×3 times with PBS. Avidin-biotin-peroxidase complex in PBS was applied for 30 min. Immunoperoxidase labeling was performed with a Vectostain ABC kit (Vector Labs, Burlingame, Calif.). After extensive washing in PBS for 4–5 times (each 5 min), the coverslips were incubated in diaminobenzidine tetrahydrochloride (DAB) in PBS, with 0.01% hydrogen peroxide for 3 min. The reaction was stopped by washing the coverslips in PBS and examined under a light microscope. To confirm specific staining, samples incubated with preabsorbed primary antibody were used as negative control, and the insulin producing cell line RIN 1046-38 cells were used as positive control for our experiments. The avidin-biotin-peroxidase (ABC) procedure was performed according to methods known in the art (Hsu et al., 1981).

ERK = assay: MAP kinase (ERK) activity in AR42J cells; conditions: 3 days; for ERK (MAP kinase) activity: GLP-1 10 nM, exendin-4 0.1 nM
Experimental: MAP Kinase Activity. After treatment, 60 mm dishes of 80% confluent cells were lysed at 4° C. in lysis buffer (in mM): 50 TRIS-HCl, PH 8, 150 NaCl, 5 EDTA, 1% NP-40, 0.25% sodium deoxycholate, 1 NaF, 10 sodium pyrophosphate, 0.1 PMSF, 1 sodium orthovanadate, 20 μg/ml aprotinin, and 10 μg/ml leupeptin. The cell lysate was clarified by centrifugation at 16,000×g at 4° C. for 20 min. The clarified cell lysate was immunoprecipitated overnight at 4° C., rotating with 4.5 μg of ERK1-CT antibody and 40 μl of packed protein G+protein A agarose resin (Oncogene Research Product, Cambridge, Mass.). The immune pellet was assayed for MAPK activity using MBP as the substrate. MBP (18.6 μg) was phosphorylated at 20° C. for 10 min in a final volume of 60 μl containing 20 mM Hepes, PH 7.4, 10 mM MgCl2, 1 mM DTT, 20 uM unlabeled ATP and 40 μCi (3,000 Ci/mmol) [^32P]-ATP. The reaction was terminated by the addition of 25 μl of 3× Laemmli sample buffer and heating at 70° C. for 10 min. MAPK activity was assessed by SDS-PAGE and auto-radiography. The autoradiograms were quantified by densitometry.

[3] = 10 nM GLP-1 or 0.1 nM exendin-4, 3 days

## CC[C@H](C)[C@H](NC(=O)[C@H](Cc1ccccc1)NC(=O)[C@H](CCC(=O)O)NC(=O)[C@H](CCCCN)NC(=O)[C@H](C)NC(=O)[C@H](C)NC(=O)[C@H](CCC(N)=O)NC(=O)CNC(=O)[C@H](CCC(=O)O)NC(=O)[C@H](CC(C)C)NC(=O)[C@H](Cc1ccc(O)cc1)NC(=O)[C@H](CO)NC(=O)[C@H](CO)NC(=O)[C@@H](NC(=O)[C@H](CC(=O)O)NC(=O)[C@H](CO)NC(=O)[C@@H](NC(=O)[C@H](Cc1ccccc1)NC(=O)[C@@H](NC(=O)CNC(=O)[C@H](CCC(=O)O)NC(=O)[C@H](C)NC(=O)[C@@H](N)Cc1c[nH]cn1)[C@@H](C)O)[C@@H](C)O)C(C)C)C(=O)N[C@@H](C)C(=O)N[C@@H](Cc1c[nH]c2ccccc12)C(=O)N[C@@H](CC(C)C)C(=O)N[C@H](C(=O)N[C@@H](CCCCN)C(=O)NCC(=O)N[C@@H](CCCNC(=N)N)C(N)=O)C(C)C [GLP-1]
Islets of Langerhans
  cAMP levels 15 min after removal of peptide by three washes: returned to baseline
  concentration of maximum cAMP response: 1 nM
AR42J cells [1]
  intracellular cAMP levels: not altered
AR42J cells [2]; 1 nM GLP-1, 3 days
  AR42J cells converted into insulin-positive cells: ~10%
AR42J cells [2]; [3]
  AR42J cells converted into insulin-positive cells: ~25%
AR42J cells [2]; 48 h, GLP-1 (10 nM)
  treated AR42J cells glucagon positive: 20%
  treated AR42J cells insulin-positive: ~6%
AR42J cells [2]; 72 h, GLP-1 (10 nM)
  treated cells containing glucagon: fully half
AR42J cells [2]; for at least 7 days, GLP-1 (10 nM)
  cells remaining insulin-positive: ~25%
ERK
  ERK (MAP kinase) activity: markedly increased

## exendin-4
Islets of Langerhans
  cAMP levels 15 min after removal of peptide by three washes: returned to baseline
Islets of Langerhans; 1 nM, 1 h
  cAMP levels relative to GLP-1: approximately 3 fold
AR42J cells [1]
  intracellular cAMP levels: did not alter
AR42J cells [2]; [3]
  AR42J cells converted into insulin-positive cells: ~25%
AR42J cells [2]; AR42J cells
  lowest concentration at which some insulin-containing cells were seen: 10^−11 molar
ERK
  potency on ERK activation relative to GLP-1: about 100 fold
  ERK (MAP kinase) activity: markedly increased
